Molecular target: T1, Protein-glutamine gamma-glutamyltransferase (Cavia porcellus, UniProt Q7M0F8)
T1 sequence (Q7M0F8 whole entry): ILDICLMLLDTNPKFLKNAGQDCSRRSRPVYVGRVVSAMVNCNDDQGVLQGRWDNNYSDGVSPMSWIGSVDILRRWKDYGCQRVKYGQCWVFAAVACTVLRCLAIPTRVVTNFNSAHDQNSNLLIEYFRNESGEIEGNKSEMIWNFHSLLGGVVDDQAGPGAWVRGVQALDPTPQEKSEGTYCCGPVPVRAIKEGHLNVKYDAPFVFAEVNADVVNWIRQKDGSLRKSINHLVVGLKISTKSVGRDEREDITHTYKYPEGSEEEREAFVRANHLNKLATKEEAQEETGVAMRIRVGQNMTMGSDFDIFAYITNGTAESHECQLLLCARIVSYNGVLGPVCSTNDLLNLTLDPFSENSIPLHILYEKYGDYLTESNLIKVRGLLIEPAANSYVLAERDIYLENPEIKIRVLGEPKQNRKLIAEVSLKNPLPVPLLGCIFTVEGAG
Test: Inhibition of guinea pig liver transglutaminase

In order of rising IC50:
1. CCCCN(CCO)CCC(=O)c1ccc(Oc2ccccc2)cc1  7.4 µM
2. CC(C)N(CCC(=O)c1ccc(Oc2ccccc2)cc1)Cc1ccccc1  12 µM
3. CN(CCC(=O)c1ccc(Oc2ccccc2)cc1)Cc1ccccc1  18 µM
